Tests used:
[1] = Solubility in cyclohexane (Table 2); assay type: physicochemical; conditions: for Solubility: cyclohexane
[2] = Solubility in water-insoluble recrystallization solvents (statement); assay type: physicochemical; conditions: water-insoluble solvent other than alicyclic or aliphatic hydrocarbons; in words

Solubility ([1]; 20 °C) [g/100 g cyclohexane] | Solubility ([1]; 30 °C) [g/100 g cyclohexane] | Solubility ([1]; 40 °C) [g/100 g cyclohexane] | Solubility ([1]; 50 °C) [g/100 g cyclohexane] | Solubility ([1]; 55 °C) [g/100 g cyclohexane] | Solubility ([1]; 60 °C) [g/100 g cyclohexane] | Compound | solubility compared with αβ-crystals ([1]; in words, refers to Table 2) | solubility of the αβ-crystals in water-insoluble solvent [2]
0.06 | 0.1 | 0.2 | 0.5 | 1.1 | 2.1 | Cc1cc(CCC(=O)OCC(C)(C)C2OCC3(CO2)COC(C(C)(C)COC(=O)CCc2cc(C)c(O)c(C(C)(C)C)c2)OC3)cc(C(C)(C)C)c1O (centres unmarked) [δ-Crystal, 3,9-bis{2-[3-(3-tert-butyl-4-hydroxy-5-methylphenyl)propionyloxy]-1,1-dimethylethyl}-2,4,8,10-tetraoxaspiro[5.5]undecane] | lower solubility than that of the αβ-crystals | 
0.2 | 0.5 | 1.4 | 4.1 | 8.5 | > 60 | Cc1cc(CCC(=O)OCC(C)(C)C2OCC3(CO2)COC(C(C)(C)COC(=O)CCc2cc(C)c(O)c(C(C)(C)C)c2)OC3)cc(C(C)(C)C)c1O (stereo not drawn) [α.eta.-Crystal, 3,9-bis{2-[3-(3-tert-butyl-4-hydroxy-5-methylphenyl)propionyloxy]-1,1-dimethylethyl}-2,4,8,10-tetraoxaspiro[5.5]undecane] |  | so high that the δ-crystals containing substantially no αβ-crystals can be obtained even at room temperature

From patent publication US4845244A, “Production of hydroxyphenylpropionic acid ester having a novel crystalline structure” (Sumitomo Chemical Company, Limited, priority 1985, dated 1989)
